Laboratory results published in patent publication US7612201B2, “Pyrazole compounds” (Vernalis (Cambridge) Limited, priority 2002, dated 2009).

Molecular target: T1, yeast HSP90 (Saccharomyces cerevisiae, UniProt P02829)
T1 construct: made in house; host or cells: E. coli
Test: Malachite green ATPase assay
Assay type: biochemical
Conditions: activity range
Text: The intrinsic ATPase activity of HSP90 may be measured using yeast HSP90 as a model system. The assay, based on the use of malachite green for the measurement of inorganic phosphate, was used to test the HSP90 inhibitory activity of the compounds of the Examples herein.
Malachite Green ATPase Assay
Chemicals are of the highest purity commercially available and all aqueous solutions are made up in AR water. Because of the need to minimise contamination with inorganic phosphate, precautions should be taken with solutions and apparatus used in the assays. Glassware and pH meters are rinsed with double distilled or deionised water before use and, wherever possible, plastic ware should be used. Gloves are worn for all procedures. • (1) Greiner 384-well (Greiner 781101) or Costar 384-well flat-bottomed polystyrene multiwell plates (VWR). • (2) Assay buffer of (a) 100 mM Tris-HCl, pH 7.4, (b) 150 mM KCl, (c) 6 mM MgCl2. Stored at room temperature. • (3) 0.0812% (w/v) malachite green (M 9636, Sigma Aldrich Ltd., Poole, UK). Stored at room temperature. • (4) 2.32% (w/v) polyvinyl alcohol USP (P 1097, Sigma Aldrich Ltd, Poole, UK) in boiling water (see Comment 1), allowed to cool, and stored at room temperature. • (5) 5.72% (w/v) ammonium molybdate in 6 M hydrochloric acid. Stored at room temperature. • (6) 34% (w/v) sodium citrate. Stored at room temperature. • (7) 100 mM ATP, disodium salt, special quality (47699, Sigma Aldrich). Stored at −20° C. • (8) E. coli expressed yeast HSP90 protein, purified >95% (see, e.g., Panaretou et al., 1998) and stored in 50 uL aliquots at −80° C.
Method • 1. Dilute test compounds to 500 μM in AR water (DMSO concentration will be 2.5%). Transfer 2.5 μl of these compounds directly from the daughter plate to the assay plate, giving a final assay concentration of 100 μM. To obtain 12 point IC50 values, perform serial dilutions 1:2 to produce a range of assay concentrations from 100 μM to 97.6 nM (2.5% DMSO), and transfer 2.5 μl of each concentration into the assay plate. Column 1 in the assay plate contains no compound, as a negative control. An additional row with no compound is also used as a background. • 2. Prepare ATP by diluting 100 mM stock to 925 μM with assay buffer, and aliquot 5 μl of diluted ATP to each well including controls (final assay concentration 370 μM). • 3. Add 5 μl of buffer to background row. • 4. Dilute enzyme preparation to 1.05 μM with assay buffer, and aliquot 5 μl into each compound well and to the negative control column. • 5. Collect the reagents to the bottom of the well, cover plate with plate seal and incubate overnight at 37 degC. • 6. First thing in the morning prepare the Malachite Green Reagent. Add 2 parts of Malachite Green Solution, 1 part of Polyvinyl Alcohol Solution, 1 part of Ammonium Molybdate Solution, and 2 parts of AR water. • 7. Invert to mix, and leave for approximately 1 hour until the colour turns from brown to golden yellow. • 8. Add 40 μl of Malachite Green Reagent to each well, allow 5 mins for colour to develop. • 9. Add 5 μl of Sodium Citrate Reagent to each well (see comment 2) • 10. Re-cover with plate seal and shake on plate shaker for at least 15 mins. • 11. Measure Absorbance at 620 nm using a suitable plate reader (e.g. Victor, Perkin Elmer Life Sciences, Milton Keynes, UK).
Comments • (1) The polyvinyl alcohol dissolves in boiling water with difficulty and stirring for 2-3 h is required. • (2) The time interval between addition of the malachite green reagent and the sodium citrate should be kept as short as possible in order to reduce the non-enzymatic hydrolysis of ATP. Once the sodium citrate is added, the colour is stable for up to 4 h at room temperature. • (3) Compounds can be added to the assay plates using a Biomek FX Robot (Beckman Coulter).

T1 sequence (P02829 whole entry): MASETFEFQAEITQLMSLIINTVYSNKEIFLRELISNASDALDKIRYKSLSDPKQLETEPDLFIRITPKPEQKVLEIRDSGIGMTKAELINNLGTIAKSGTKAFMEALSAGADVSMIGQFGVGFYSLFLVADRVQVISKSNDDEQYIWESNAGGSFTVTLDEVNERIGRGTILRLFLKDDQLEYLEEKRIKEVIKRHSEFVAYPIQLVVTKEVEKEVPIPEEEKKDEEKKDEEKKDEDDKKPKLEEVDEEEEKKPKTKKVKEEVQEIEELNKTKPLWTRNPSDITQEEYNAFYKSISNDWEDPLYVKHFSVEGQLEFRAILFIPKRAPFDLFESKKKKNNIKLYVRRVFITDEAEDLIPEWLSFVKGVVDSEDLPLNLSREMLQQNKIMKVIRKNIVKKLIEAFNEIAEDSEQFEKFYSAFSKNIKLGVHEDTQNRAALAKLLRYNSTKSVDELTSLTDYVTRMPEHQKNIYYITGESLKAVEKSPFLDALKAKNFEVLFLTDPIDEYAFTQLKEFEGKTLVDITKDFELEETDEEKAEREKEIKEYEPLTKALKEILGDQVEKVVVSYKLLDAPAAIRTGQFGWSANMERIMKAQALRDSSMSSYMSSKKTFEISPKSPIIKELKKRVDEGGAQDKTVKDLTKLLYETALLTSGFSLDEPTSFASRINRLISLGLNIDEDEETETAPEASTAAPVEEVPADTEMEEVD

Row | IC50 [µM] | SMILES
1 | < 50 | OCCCN1CCN(c2c[nH]nc2-c2cc(Cl)c(O)cc2O)CC1 [Example 30]
2 | < 50 | Oc1cc(O)c(-c2n[nH]cc2N2CCNCC2)cc1CCc1cccc2c1OCO2 [Example 66]
3 | < 50 | COC(=O)c1cccc(CN2CCN(c3c[nH]nc3-c3cc(Cl)c(O)cc3O)CC2)c1 [Example 16]
4 | > 50 | Oc1cc(O)c(-c2c(N3CCNCC3)cnn2Cc2ccccc2)cc1Br [Example 62]
5 | < 50 | NC(=O)c1cccc(CN2CCN(c3c[nH]nc3-c3cc(Cl)c(O)cc3O)CC2)c1 [Example 25]
6 | < 50 | Cc1ccc(C)c(CCc2cc(-c3n[nH]cc3N3CCNCC3)c(O)cc2O)c1 [Example 74]
7 | > 50 | Oc1cc(O)c(-c2n[nH]cc2N2CCN(Cc3ccco3)CC2)cc1Cl [Example 5, 4-Chloro-6-[4-(4-furan-2-ylmethyl-piperazin-1-yl)-1H-pyrazol-3-yl]-benzene-1,3-diol]
8 | < 50 | Oc1cc(O)c(-c2n[nH]cc2N2CCN(Cc3ccc(Cl)cc3)CC2)cc1Cl [Example 18]
9 | < 50 | Cc1ccccc1CCc1cc(-c2n[nH]cc2N2CCNCC2)c(O)cc1O [Example 75]
10 | < 50 | OCCNC1CCN(c2c[nH]nc2-c2cc(Br)c(O)cc2O)CC1 [Example 98]
11 | < 50 | Cc1cc(NC(=O)c2ccc(CN3CCN(c4c[nH]nc4-c4cc(Cl)c(O)cc4O)CC3)cc2)no1 [Example 37]
12 | < 50 | Oc1cc(O)c(-c2n[nH]cc2N2CCN(Cc3ccccn3)CC2)cc1Cl [Example 31]
13 | > 50 | Oc1cc(F)ccc1-c1n[nH]cc1N1CCNCC1 [Example 52, 3-(4-Fluoro-2-hydroxyphenyl)-4-(piperazin-1-yl)-1H-pyrazole]
14 | > 50 | CC(C)n1cc(N2CCNCC2)c(-c2cc(Br)c(O)cc2O)n1 [Example 61]
15 | < 50 | CCN1CCN(c2c[nH]nc2-c2cc(Cl)c(O)cc2O)CC1 [Example 6]
16 | < 50 | Oc1cc(O)c(-c2n[nH]cc2N2CCN(Cc3ccc(-n4cccn4)cc3)CC2)cc1Cl [Example 39]

Row | IC50 [µM] | SMILES
17 | < 50 | Oc1cc(O)c(-c2n[nH]cc2N2CCN(Cc3cccnc3)CC2)cc1Cl [Example 7]
18 | < 50 | Oc1cc(O)c(-c2n[nH]cc2N2CCC(NCc3ccc4c(c3)OCO4)CC2)cc1Br [Example 83]
19 | < 50 | Oc1cc(O)c(-c2n[nH]cc2N2CCN(CCc3ccccc3)CC2)cc1Cl [Example 34]
20 | < 50 | COc1ccc(CN2CCN(c3c[nH]nc3-c3cc(Cl)c(O)cc3O)CC2)cc1 [Example 26]
21 | < 50 | COc1ccc(CCc2cc(-c3n[nH]cc3N3CCNCC3)c(O)cc2O)cc1 [Example 76]
22 | < 50 | Oc1cc(O)c(-c2n[nH]cc2N2CCC(NCc3ccc(Br)cc3)CC2)cc1Br [Example 85]
23 | < 50 | N#Cc1ccccc1CN1CCN(c2c[nH]nc2-c2cc(Cl)c(O)cc2O)CC1 [Example 23]
24 | > 50 | CCOC(=O)Cn1cc(N2CCNCC2)c(-c2cc(Br)c(O)cc2O)n1 [Example 64]
25 | > 50 | N#CCN1CCN(c2c[nH]nc2-c2cc(Cl)c(O)cc2O)CC1 [Example 10]
26 | < 50 | N#Cc1ccc(CN2CCN(c3c[nH]nc3-c3cc(Cl)c(O)cc3O)CC2)cc1 [Example 22]
27 | < 50 | O=C(O)c1ccc(CN2CCN(c3c[nH]nc3-c3cc(Cl)c(O)cc3O)CC2)cc1 [Example 35]
28 | > 50 | N#CCOc1cc(O)c(-c2n[nH]cc2N2CCN(CC#N)CC2)cc1Cl [Example 11]
29 | < 50 | O=C(O)c1cccc(CN2CCN(c3c[nH]nc3-c3cc(Cl)c(O)cc3O)CC2)c1 [Example 29]
30 | > 50 | CC(C)(C)OC(=O)N1CCN(c2c[nH]nc2-c2cc(Cl)c(O)cc2O)CC1 [Example 1, 4-[3-(5-Chloro-2,4-dihydroxy-phenyl)-1H-pyrazol-4-yl]-piperazine-1-carboxylic acid tert-butyl ester]
31 | < 50 | Oc1cc(O)c(-c2n[nH]cc2N2CCNCC2)cc1CCc1cccc(F)c1 [Example 69]
32 | < 50 | N#Cc1cccc(CN2CCN(c3c[nH]nc3-c3cc(Cl)c(O)cc3O)CC2)c1 [Example 19]
